The source of these data is article PMC8017616, “Discovery of two novel laccase-like multicopper oxidases from Pleurotus citrinopileatus and their application in phenolic oligomer synthesis” (Biotechnology for Biofuels, 2021).

Counter-ions that a name gives are not always drawn. Like-named read-outs stand apart in the source and are kept apart here.

A word on the Km: it is the substrate concentration at which the rate is half of its maximum.

Holding throughout (conditions): 50 mM phosphate-citrate buffer pH 4; routine assay 35 °C
Assay [1] concerns T1, PcLac1.
T1 construct: native, purified from culture supernatant (Q Sepharose, DEAE Sepharose); 60 kDa by SDS-PAGE
The experiment in a line: spectrophotometric oxidation at […] nm, nonlinear Michaelis-Menten fit. The assay is classed as biochemical, Pleurotus citrinopileatus.

The test system of assay [2] is T2, PcLac2.
T2 construct: native, purified from culture supernatant (Q Sepharose, DEAE Sepharose); about 75 kDa by SDS-PAGE; band also holds a copper radical oxidase-like protein
Described as above. The assay is classed as biochemical, Pleurotus citrinopileatus.

Assay [3] relates to PcLac1.
In assay [4] the test system is PcLac2.

For `COc1cccc(OC)c1O` [2,6-DMP, 2,6-dimethoxyphenol], the values for the Michaelis-Menten constant (Km) in the assay with PcLac1 [1] and in the assay on PcLac2 [2] were 672 ± 56 µM and 1070 ± 105 µM, respectively.

As to `CCn1c(=NN=c2sc3cc(S(=O)(=O)O)ccc3n2CC)sc2cc(S(=O)(=O)O)ccc21` [ABTS, 2,2′-Azino-bis-(3-ethylbenzthioazoline-6-sulfonic acid) diammonium salt], the Km came to 60 ± 7 µM in the assay with PcLac1 [3] and 165 ± 15 µM in the assay on PcLac2 [4].
